Results from publication PMC2676116 (Molecular cancer therapeutics, 2009).

How the values were obtained:
Tdp1 [1] = target: T1, Tdp1 (Homo sapiens, UniProt Q9NUW8); assay: Secondary radiolabel gel-based assay; type: biochemical; conditions: Fig. 5B & C
CD-45 associated PTP = conditions: cited from earlier work
Tdp1 [2] = target: T1, Tdp1; assay: Tdp1 AlphaScreen HTS assay; type: biochemical; conditions: for Tdp1 inhibition (in words): AlphaScreen primary / follow-up HTS assay, Fig. 5C
H493R Tdp1 mutant = H493R Tdp1 mutant (Homo sapiens, UniProt Q9NUW8, H493R); assay: SCAN1 Tdp1 mutant covalent Tdp1-DNA intermediate; type: biochemical; conditions: for accumulation of the covalent Tdp1-DNA intermediate: 10 μM concentration, H493R Tdp1 100 nM
Tdp1 [3] = target: T1, Tdp1; conditions: cited from earlier work

Chain of H493R Tdp1 mutant (Q9NUW8 whole entry H493R): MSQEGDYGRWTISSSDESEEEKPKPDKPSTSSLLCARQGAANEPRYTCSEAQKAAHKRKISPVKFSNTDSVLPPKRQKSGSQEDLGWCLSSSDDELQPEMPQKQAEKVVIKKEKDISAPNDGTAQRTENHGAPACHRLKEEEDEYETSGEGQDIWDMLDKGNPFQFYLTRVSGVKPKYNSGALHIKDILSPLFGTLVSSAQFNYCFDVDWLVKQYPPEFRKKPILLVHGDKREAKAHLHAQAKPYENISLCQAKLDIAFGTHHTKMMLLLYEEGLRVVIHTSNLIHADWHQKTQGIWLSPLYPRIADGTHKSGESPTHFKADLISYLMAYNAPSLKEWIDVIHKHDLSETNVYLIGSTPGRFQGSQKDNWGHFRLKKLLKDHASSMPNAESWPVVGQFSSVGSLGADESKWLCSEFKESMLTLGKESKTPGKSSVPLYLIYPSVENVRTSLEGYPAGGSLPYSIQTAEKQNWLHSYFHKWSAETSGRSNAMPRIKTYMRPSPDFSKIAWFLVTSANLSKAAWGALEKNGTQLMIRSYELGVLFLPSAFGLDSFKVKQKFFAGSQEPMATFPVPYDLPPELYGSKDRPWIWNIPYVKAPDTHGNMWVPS
T1 sequence (Q9NUW8 whole entry): as the sequence (Q9NUW8 whole entry H493R) above, with R493H counted along it

## CN(N=O)c1ccc(O)c(O)c1 [methyl-3,4-dephostatin]
Tdp1 [1]
  Tdp1 inhibition (in words): sub-micromolar concentration
CD-45 associated PTP
  inhibition of CD-45 associated PTP: does not inhibit
Tdp1 [2]
  Tdp1 inhibition (in words): sub-micromolar concentration
H493R Tdp1 mutant
  accumulation of the covalent Tdp1-DNA intermediate: completely prevented

## [O]=[W](=[O])([O-])[O-] [tungstate]
Tdp1 [3]
  concentration at which Tdp1 is inhibited (in words): millimolar concentrations

## CN(N=O)c1cc(O)ccc1O [dephostatin]
Tdp1 [1]
  Tdp1 inhibition (in words): only a trace level of inhibition
Tdp1 [1]; listed as Dephostatin
  Tdp1 inhibition (in words): only trace inhibition
Tdp1 [2]
  Tdp1 inhibition (in words): only trace inhibition
H493R Tdp1 mutant
  accumulation of the covalent Tdp1-DNA intermediate: much weaker effect
H493R Tdp1 mutant; SCAN1 Tdp1 mutant
  effect on binding of the Tdp1 DNA substrate (DNA trapping): almost no effect

## [O]=[V]([O-])([O-])[O-] [vanadate]
Tdp1 [3]
  concentration at which Tdp1 is inhibited (in words): millimolar concentrations
Tdp1 [2]; AlphaScreen assay, 384-well, Fig. 3C
  Tdp1 inhibition potency (in words): inhibition in the sub-millimolar range

## N=C(N)c1ccc(-c2ccc(-c3ccc(C(=N)N)cc3)o2)cc1 [Furamidine, furamidine]
Tdp1 [3]
  concentration at which Tdp1 is inhibited (in words): micromolar concentrations
